Tests used:
TERRA in U2OS cells = assay: TERRA levels by RNA dot blot in U2OS cells; format: cell-based; conditions: ALT positive U2OS cells, 2 μM, 2 days
Method: LOX human melanoma cells[74],[101] were grown in complete RPMI (high glucose RPMI supplemented with 10% heat inactivated FBS, 100 I.U./mL Penicillin, and 100 μg/mL Streptomycin (Corning)). LOX cells inducibly expressing TRF2∆B protein were generated by lentiviral transduction. Cells were infected with lentiviral particles containing pInducer10L and pIND-MYC-TRF2∆B, and single cell clonal colonies were selected in 1 µg/mL puromycin. N-terminally Myc-tagged TRF2∆B protein was expressed in stable lines by induction with 1 µg/ml doxycycline at indicated days. Due to the instability of doxycycline in the culture, the culture medium will be replaced with fresh doxycycline every 2 days. […]
Homogenous Time Resolved Fluorescence (HTRF) assay
All material including peptide, nucleic acids and compounds were dissolved in buffer containing 20mM HEPES pH7.5 150mM KCl. […] The plate was incubated at room temperature for 30 minutes, following by adding 5µL of streptavidin-Tb-cryptate (Cisbio, PerkinElmer) and the plate was then incubated at room temperature for another 30 minutes before measured by EnVision plate reader (330/520 nm). […] The curves were analyzed using Prism 8.0. […]
Total RNA was isolated as previously described by using TRIzol reagent (Invitrogen) 1. […] RNA concentration was determined by Nanodrop-2000 (ThermoFisher). […]

TERRA = assay: CD spectroscopy of TERRA mixed with compound; conditions: 1:1 molar ratio, 150 mM KCl buffer
Method: All nucleic acids were dissolved in buffer containing 20 mM HEPES pH7.5, 150 mM salt (KCl or LiCl), 20% PEG8000 at the concentration of 10 μM for experiments. A J-815 spectrometer equipped with a PFD-425S Peltier cell holder was used to measure CD spectra at 4 °C between 200 and 340 nm to determine the secondary structure content of various oligo constructs. The molar ellipticity was calculated and the plot was made using Excel.

[1] = system: TERRA (unlabelled) (RNA, G4) UUAGGGUUAGGGUUAGGGUUAGGG; assay: fluorescence polarization, displacement of TRF2 GAR peptide; conditions: 150 mM KCl, NaCl or LiCl (salt not specified); 20 mM HEPES; 20 mM HEPES pH 7.5, room temperature; FITC-TRF2 GAR peptide 10 nM displaced; 5 μM oligo
TeloDNA and TRF2 complex = assay: FP inhibition assay, TRF2 GAR binding to TeloDNA; conditions: 10 nM peptide, 5 μM oligo
Method: All the nucleic acids, peptides and chemicals were dissolved in buffer containing 20 mM HEPES pH7.5, 150 mM salt (KCl, NaCl, LiCl) at the stock concentration of 1 mM. For peptide and nucleic acid interactions, 25μL of each nucleic acids with a sequential twofold dilutions starting from 50 μM was added into each well of 96-well plate followed by adding 25μL of 10 nM FITC labeled TRF2 peptide. For compounds and nucleic acid interactions, 20μL of each compounds with a sequential twofold dilutions starting from 50 μM were added into each well of 96-well plate followed by adding 5μL of 20 ng/mL tRNA and 25μL of 10 nM FAM labeled nucleic acids. For inhibition assay, 5μL FITC labeled TRF2 GAR peptide (10 nM final concentration) and 10 μL oligos (5 μM final concentration) were mixed, followed by adding 5μL of each compound with a sequential twofold dilutions starting from 50 μM into each well of 384-well plate. All components were mixed thoroughly, and the plate was incubated at room temperature for 1 h before placing in an Envision Plate Reader for reading at 495/520 nm. All data curves were fitted using Prism 8.0.

TERRA in LOX cells = assay: TERRA levels by RNA dot blot and Northern blot in LOX cells; format: cell-based, human; conditions: 2 μM, 3 days; for accumulation of TERRA as a shorter form: Northern blot

| SMILES | TERRA levels in U2OS cells (TERRA in U2OS cells) | alteration of CD spectrum of TERRA at major peak (~260 nm) (TERRA) | IC50 [1] | IC50 (TeloDNA and TRF2 complex) | accumulation of TERRA as a shorter form (TERRA in LOX cells) | total TERRA levels relative to PP control (TERRA in LOX cells; RNA dot blot and Northern blot) |
| --- | --- | --- | --- | --- | --- | --- |
| CN(C)c1ccc(Nc2c3ccc(NC(=O)CCN4CCCC4)cc3nc3cc(NC(=O)CCN4CCCC4)ccc23)cc1 [BRACO-19] | reduced TERRA levels | not BRACO-19 or PP altered the CD spectrum | 240 nM | 40 nM | not observed |  |
| CCc1c(C)c2cc3nc(cc4nc(cc5c(CC)c(C)c(cc1[nH]2)n5C)C(C)=C4CCC(=O)O)C(CCC(=O)O)=C3C [NMM, N-methyl mesoporphyrin IX] | reduced TERRA levels | altered the CD spectrum of TERRA | 420 nM | 1000 nM | accumulated as a shorter form | reduced total TERRA levels |
